Test results reported in patent US8552064B2, “Suramin and derivatives thereof as topical microbicide and contraceptive” (Eastern Virginia Medical School, priority 2005, dated 2013).
Values after ≈ are worked out from the molar mass of the structure shown. Where two headings read alike, the source gives them in different places.

Experiments:
[1] = target: sheep testicular hyaluronidase (Ovis aries, UniProt A0ACI6NV18); assay: Hyaluronic acid hydrolysis assay; type: biochemical
Text: A hyaluronic acid hydrolysis assay was used to assess the hyaluronidase inhibition properties of suramin sodium. Hyaluronidase is a critical sperm enzyme involved in cumulus penetration. Inhibition of this enzyme renders sperm incapable of transversing the egg vestments, thus impeding sperm-oocyte interaction and, ultimately, fertilization.
Hyaluronidase activity was quantitatively determined by measuring the extent of hyaluronic acid hydrolysis (i.e., the concentration of N-acetylglucosamine-reactive material formed from enzyme activity). Reaction mixtures containing the following were prepared: test compound (variable concentrations of suramin sodium); 0.1 M sodium acetate; 0.15 M sodium chloride; pH adjusted to 5.5; 7.2 units sheep testicular hyaluronidase (Sigma, Type III; H-2251) contained in an acetate buffer; 0.3 mg/ml hyaluronic acid (Sigma, from bovine vitreous humor; H-7630). The enzyme was preincubated with the test agent (1 mg/ml for screening purposes) for 10 minutes before starting the reaction by the addition of hyaluronic acid. The enzyme reaction was determined using the method of Aronson and Davidson (J. Biol. Chem. 241 437-40, 1967). […] The reaction product is determined calorimetrically with […] (Reissig et al., J. Biol. Chem. 217 959-966, […]) by measuring the absorbance at 545 nm.

HSV-1 = assay: HSV plaque assay, HSV-1; type: cell-based; settings: Human alphaherpesvirus 1; read-out: IC50 against HSV-1
[2] = tested on: HIV-1-infected SupT1 cells (strain IIIB); assay: Cell-to-cell transmission (CTC) assay; type: cell-based; settings: for IC50: Human immunodeficiency virus 1, IIIB, SUP-T1
Description: HIV-1-infected SupT1 cells (strain IIIB), killed by prior exposure to mitomycin C (200 μg/mL) for 1 hour at 37° C., were incubated with each agent and P4-R5 (MAGI) cells for 2 hours at 37° C. Following the incubation period, cells were washed and provided with new media. Successful transmission and subsequent replication events were quantitated using Galacto-Star assay 48 hr post-infection. Infected cells were expressed as a percent of cells infected after mock exposure. In each assay, triplicate wells were tested for each concentration. The results of this assay are provided herein.

[3] = tested on: interleukin release by vaginal cells; type: cell-based, human
Description: Interleukin levels were assessed in the supernatant collected after 6 hours of compound-cells incubation using commercial ELISA kits (R&D Diagnostics, Minneapolis, Minn.) according to manufacturer's instructions (also see Fichorova R. N. et al., J. Infect. Dis. 184(4): 418-28, 2001).

rabbit sperm = assay: Rabbit contraceptive efficacy, intravaginal application; type: in vivo
Description: Semen was collected from New Zealand White (NZW) male rabbits with the aid of an artifical vagina, pooled and adjusted with a modified Tyrode's albumin lactate pyruvate (TALP) medium to 50 million motile sperm per milliliter. Ovulation was induced in females by injection of 200 IU of human chorionic gonadotropin (hCG) intravenously. Under the ex-vivo (in-vitro) mixing protocol, sperm were incubated with indicated suramin test compounds in a tube for 15 minutes at 37° C. prior to insemination (0.5 mL) as described in Anderson R. A., et al. J. Androl., 21: 862-875 (2000). […] Sperm-compound contact, in this case, took place in vivo, inside the vagina. Insemination and administration of the compound was performed with a flexible, 12 cm long polyurethane catheter. The main endpoints for both protocols were the number of implantation sites counted 11 days after insemination and pregnancy rate. Such sites were counted by visual inspection of the tubes.

CaSki cells = assay: Cytotoxicity in the anti-herpes study; type: cell-based, human; settings: highest concentration tested (1000 μg/mL)
Neisseria gonorrhoeae = assay: Gonococcal growth inhibition (multiplication assay); type: cell-based
Description: Gonococcal growth inhibition assays were performed by the method of Anderson R. A., et al., J. Androl., 21: 862-875; 2000. Briefly, Neisseria gonorrhea from local uncomplicated cases of gonorrhea were isolated (verified by Gram stain, oxidase reactivity and sugar fermentation). The titer of log-phase cultures were adjusted by dilution in GC broth to 0.5 McFarland standard (approximately 10^8 colony forming units per ml). This was diluted 1:10 with broth that contained no additions (control), and each of serial 1:10 dilutions of test agent, ranging from 1 mg/ml to 1.0 μg/ml. The cultures were incubated at 37° C. for four hours. Four serial 1:10 dilutions were made in GC broth, and a portion of each dilution was inoculated onto GC agar plates. The plates were incubated overnight, and resultant gonococcal colonies were counted under bright-field microscopy. Data for each concentration of suramin were expressed as the number of colony-forming units (CFU) per ml of the original log-phase bacterial suspension.

[4] = tested on: human vaginal cell line (VK2); type: cell-based
Description: Vaginal cytotoxicity was determined by 3-[4,5-dimethylthiazol-2-yl]-2,5-diphenyl tetrazolium bromide (MTT) assay and cytokine assays, both as described in Fichorova R. N. et al., J. Infect. Dis. 184(4): 418-28, 2001). The MTT assay assesses the cytotoxicity of various compounds against cell lines by plating the desired cells prior to exposure to the compounds. On the day of treatment, culture medium was carefully aspirated from the wells and replaced with fresh medium containing the test compound at various concentrations. The cells were incubated with the various compounds for 6 hours, washed with fresh medium and MTT was then added and the plates were incubated at 37° C. for a period of time sufficient to allow MTT to form formazan crystals by reacting with metabolically active cells. The formazan crystals were solubilized overnight at 37° C. in a solution containing 10% SDS in 0.01 M HCl. The absorbance of each well was measured in a microplate reader (Dynex) at 540 nm and a reference wavelength of 690 nm.

[5] = tested on: human sperm acrosome reaction; assay: Acrosome reaction ionophore challenge test (ARIC); type: cell-based
Text: The acrosome reaction ionophore challenge test (ARIC) was used, as described in Cummins J. M., et al., J. Androl., 12: 98-103 (1991), to measure the proportion of spermatozoa that respond to a calcium ionophore (typically, A23187), developing an acrosome reaction. More specifically, this test was used to determine whether suramin sodium affects the ionophore-induced acrosome reaction of the sperm, therefore altering the capacity of sperm to penetrate an egg. Results are expressed in percent inhibition of control (untreated sperm) acrosome reactions. 2.

sheep testicular hyaluronidase, sequence (A0ACI6NV18 entry or part of it): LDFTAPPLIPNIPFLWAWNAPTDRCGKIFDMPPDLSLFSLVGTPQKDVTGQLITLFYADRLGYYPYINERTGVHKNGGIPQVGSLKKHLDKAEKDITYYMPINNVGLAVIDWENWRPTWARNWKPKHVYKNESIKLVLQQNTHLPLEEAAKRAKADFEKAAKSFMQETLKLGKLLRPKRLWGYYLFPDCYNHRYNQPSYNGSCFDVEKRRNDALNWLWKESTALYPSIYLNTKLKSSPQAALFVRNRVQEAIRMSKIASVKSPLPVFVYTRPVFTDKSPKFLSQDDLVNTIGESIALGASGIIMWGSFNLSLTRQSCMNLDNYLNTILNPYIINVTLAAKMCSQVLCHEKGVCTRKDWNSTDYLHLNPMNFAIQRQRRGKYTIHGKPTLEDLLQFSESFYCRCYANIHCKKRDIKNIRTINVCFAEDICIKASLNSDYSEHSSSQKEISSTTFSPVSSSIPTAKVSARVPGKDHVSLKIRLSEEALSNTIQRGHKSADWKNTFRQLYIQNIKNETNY

With Cc1ccc(C(=O)Nc2ccc(S(=O)(=O)O)c3cc(S(=O)(=O)O)cc(S(=O)(=O)O)c23)cc1NC(=O)c1cccc(NC(=O)Nc2cccc(C(=O)Nc3cc(C(=O)Nc4ccc(S(=O)(=O)O)c5cc(S(=O)(=O)O)cc(S(=O)(=O)O)c45)ccc3C)c2)c1 [Suramin, 8,8′-(carbonylbis(imino-3,1-phenylenecarbonylimino(4-methyl-3,1-phenylene)carbonylimino))bis-1,3,5-naphthalene trisulfonic acid] the “Potency, Hyaluronidase (Hyaluronic Acid Hydrolysis)” value [1] was “High”, the IC50 (HSV-1) was 30 µg/mL (≈ 23.1 µM) and the “Potency, HIV-1 CTC” value [2] was “High”. The IC50 ([2]; CD4-dependent cell-to-cell transmission, API, read-out: IC50 CTC assay) was 93.5 µg/mL (≈ 72.1 µM), the IC50 ([2]; not API (Table 8: 2% suramin in Replens), read-out: IC50 CTC, second value beside API) was 9.6 µg/mL (≈ 7.4 µM) and the “N-9-induced release of IL-1 and IL-8 by vaginal cells” value [3] was “decreased N-9-induced release of IL-1 and IL-8”. The “Potency, Proinflammatory Cytokines (ELISA)” value [3] was “None”, the “stimulation of proinflammatory cytokines” value [3] was “no stimulation of proinflammatory cytokines” and the “release of IL-1β by cultured vaginal cells” value ([3]; human, 6 h) was “did not induce the release of IL-1β”. For the same compound, the “inhibition (contraceptive), Vaginal Application” value (rabbit sperm; 1.25% in Replens) was 100% inhibition, the “inhibition, Vaginal Application” value (rabbit sperm; 2%) was 44% at 2% and the “inhibition, Vaginal Application Combo” value (rabbit sperm; 2% suramin + 2% sorbitan mono laurate or 0.1% N-9) was 100% inhibition at. For the same compound, the “reduction in PR” value (rabbit sperm; 5%, intravaginal administration) was 75% inhibition, the “Potency, Contraception, rabbit inseminated sperm (Vaginal Application)” value (rabbit sperm; rabbit, in vivo) was “Moderate” and the “Potency, Vaginal Application Combo” value (rabbit sperm; rabbit, in vivo) was “High”. For the same compound, the “Potency, Vaginal Application, Replens” value (rabbit sperm; rabbit, in vivo) was “High”, the cytotoxicity (CaSki cells) was “not being significantly cytotoxic” and the “Potency, Gonococcus (GC) Multiplication” value (Neisseria gonorrhoeae) was “Moderate”. The “inhibition of GC growth (multiplication assay)” value (Neisseria gonorrhoeae; 1 mg/mL) was “completely inhibited GC growth”, the “dose-response of GC growth” value (Neisseria gonorrhoeae; 1-1000 μg/mL) was “no clear dose-response” and the inhibition at 1000 µg/mL (Neisseria gonorrhoeae; Neisseria gonorrhoeae, 1 mg/mL, read-out: inhibition of GC multiplication) was 100%. For the same compound, the “cytotoxicity in comparative study” value [4] was “the least cytotoxic of them all”, the “effect on spontaneous and ionophore-induced acrosome reaction” value [5] was “neither to stimulate spontaneous acrosome reaction (acrosomal loss) nor to block the Ca^2+ ionophore-induced reaction” and the “Percentage of acrosome-reacted Sperm” value ([5]; Calcium-ionophore treatment (5 μM A23187): +) was 31.4 ± 15.1%. For the same compound, the “Percentage of acrosome-reacted Sperm” value ([5]; Calcium-ionophore treatment (5 μM A23187): −) was 5.28 ± 1.93% and the “Potency, Acrosome Reaction (ARIC)” value ([5]; induction or inhibition of acrosome reaction) was “None”.
